The NIST ThermoML archive (doi:10.1021/acs.jced.8b00635)
Numbers after ± are expanded uncertainties.

Experiment: activity coefficient (dimensionless); of the first substance listed, at infinite dilution; xn = mol fraction of the nth substance listed
Conditions: 101.33 kPa, Liquid, Chromatography, x1 = 0

| Compound | activity coefficient (323.15 K) | activity coefficient (333.15 K) | activity coefficient (343.15 K) | activity coefficient (353.15 K) | activity coefficient (363.15 K) | activity coefficient (373.15 K) |
| --- | --- | --- | --- | --- | --- | --- |
| Cc1cccc(C)c1 [1,3-dimethylbenzene] + CCCCC(CC)CN(CC(CC)CCCC)C(=O)C(C)C | 11.8 ± 1.2 | 9.28 ± 0.98 | 7.2 ± 0.76 | 5.33 ± 0.56 | 4.13 ± 0.43 | 3.14 ± 0.33 |
| Cc1ccc(C)cc1 [1,4-dimethylbenzene] + CCCCC(CC)CN(CC(CC)CCCC)C(=O)C(C)C | 11.6 ± 1.2 | 9.01 ± 0.95 | 6.9 ± 0.73 | 5.2 ± 0.55 | 3.75 ± 0.4 | 2.89 ± 0.3 |
| C=CCCCCCCCC [1-decene] + CCCCC(CC)CN(CC(CC)CCCC)C(=O)C(C)C | 24.3 ± 2.6 | 19.4 ± 2 | 16.8 ± 1.8 | 14 ± 1.5 | 11.1 ± 1.2 | 9.87 ± 1 |
| C=CCCCCC [1-heptene] + CCCCC(CC)CN(CC(CC)CCCC)C(=O)C(C)C | 4.02 ± 0.42 | 2.89 ± 0.3 | 2.31 ± 0.24 | 1.8 ± 0.19 | 1.25 ± 0.13 | 0.974 ± 0.099 |
| CC(C)CC(C)(C)C [2,2,4-trimethylpentane] + CCCCC(CC)CN(CC(CC)CCCC)C(=O)C(C)C | 4.26 ± 0.45 | 3.33 ± 0.35 | 2.6 ± 0.27 | 2.09 ± 0.22 | 1.74 ± 0.18 | 1.29 ± 0.13 |
| CCCCCC(C)=O [2-heptanone] + CCCCC(CC)CN(CC(CC)CCCC)C(=O)C(C)C | 13.8 ± 1.4 | 10.6 ± 1.1 | 8.16 ± 0.86 | 6.2 ± 0.65 | 5 ± 0.53 | 4.04 ± 0.42 |
| CCCC(C)C [2-methylpentane] + CCCCC(CC)CN(CC(CC)CCCC)C(=O)C(C)C | 1.11 ± 0.11 | 0.938 ± 0.096 | 0.768 ± 0.079 | 0.639 ± 0.067 | 0.525 ± 0.057 | 0.428 ± 0.049 |
| CCCC(=O)CC [3-hexanone] + CCCCC(CC)CN(CC(CC)CCCC)C(=O)C(C)C | 8.64 ± 0.91 | 6.42 ± 0.68 | 4.88 ± 0.51 | 3.74 ± 0.39 | 2.86 ± 0.3 | 2.15 ± 0.23 |
| CC(C)=O [acetone] + CCCCC(CC)CN(CC(CC)CCCC)C(=O)C(C)C | 0.901 ± 0.092 | 0.745 ± 0.077 | 0.596 ± 0.064 | 0.465 ± 0.052 | 0.375 ± 0.045 | 0.294 ± 0.039 |
| CC#N [acetonitrile] + CCCCC(CC)CN(CC(CC)CCCC)C(=O)C(C)C | 1.47 ± 0.15 | 1.21 ± 0.12 | 1.03 ± 0.1 | 0.861 ± 0.088 | 0.718 ± 0.075 | 0.568 ± 0.061 |
| c1ccccc1 [benzene] + CCCCC(CC)CN(CC(CC)CCCC)C(=O)C(C)C | 2.56 ± 0.27 | 2 ± 0.21 | 1.65 ± 0.17 | 1.37 ± 0.14 | 1.15 ± 0.12 | 0.954 ± 0.097 |
| CCCCc1ccccc1 [butylbenzene] + CCCCC(CC)CN(CC(CC)CCCC)C(=O)C(C)C | 24.4 ± 2.6 | 20.7 ± 2.2 | 17.5 ± 1.8 | 15 ± 1.6 | 12.5 ± 1.3 | 10.6 ± 1.1 |
| C1CCCCC1 [cyclohexane] + CCCCC(CC)CN(CC(CC)CCCC)C(=O)C(C)C | 2.77 ± 0.29 | 2.15 ± 0.23 | 1.74 ± 0.18 | 1.41 ± 0.15 | 1.18 ± 0.12 | 0.966 ± 0.098 |
| CCCCCCCCCC [decane] + CCCCC(CC)CN(CC(CC)CCCC)C(=O)C(C)C | 26.4 ± 2.8 | 22.7 ± 2.4 | 18.3 ± 1.9 | 15.2 ± 1.6 | 12.2 ± 1.3 | 9.89 ± 1 |
| ClCCl [dichloromethane] + CCCCC(CC)CN(CC(CC)CCCC)C(=O)C(C)C | 0.608 ± 0.065 | 0.506 ± 0.056 | 0.41 ± 0.048 | 0.339 ± 0.042 | 0.273 ± 0.037 | 0.225 ± 0.034 |
| CCOC(C)=O [ethyl acetate] + CCCCC(CC)CN(CC(CC)CCCC)C(=O)C(C)C | 1.43 ± 0.15 | 1.22 ± 0.12 | 0.985 ± 0.1 | 0.87 ± 0.089 | 0.7 ± 0.073 | 0.566 ± 0.061 |
| CCc1ccccc1 [ethylbenzene] + CCCCC(CC)CN(CC(CC)CCCC)C(=O)C(C)C | 11.3 ± 1.2 | 8.75 ± 0.92 | 6.78 ± 0.71 | 4.96 ± 0.52 | 3.9 ± 0.41 | 2.88 ± 0.3 |
| CCCCCCC [heptane] + CCCCC(CC)CN(CC(CC)CCCC)C(=O)C(C)C | 4.37 ± 0.46 | 3.49 ± 0.37 | 2.78 ± 0.29 | 2.32 ± 0.24 | 2.02 ± 0.21 | 1.71 ± 0.18 |
| C=CCCCC [hex-1-ene] + CCCCC(CC)CN(CC(CC)CCCC)C(=O)C(C)C | 1.77 ± 0.18 | 1.37 ± 0.14 | 1.17 ± 0.12 | 0.957 ± 0.097 | 0.789 ± 0.081 | 0.678 ± 0.071 |
| CCCCCC [hexane] + CCCCC(CC)CN(CC(CC)CCCC)C(=O)C(C)C | 1.91 ± 0.2 | 1.53 ± 0.16 | 1.26 ± 0.13 | 1.02 ± 0.1 | 0.845 ± 0.087 | 0.717 ± 0.075 |
| C=O [methanal] + CCCCC(CC)CN(CC(CC)CCCC)C(=O)C(C)C | 0.056 | 0.052 | 0.048 | 0.044 | 0.041 | 0.037 |
| CCCCCCCCC [nonane] + CCCCC(CC)CN(CC(CC)CCCC)C(=O)C(C)C | 18.5 ± 1.9 | 16 ± 1.7 | 13.7 ± 1.4 | 11.8 ± 1.2 | 9.8 ± 1 | 8.67 ± 0.91 |
| C=CCCCCCC [oct-1-ene] + CCCCC(CC)CN(CC(CC)CCCC)C(=O)C(C)C | 7.52 ± 0.79 | 6.09 ± 0.64 | 4.86 ± 0.51 | 3.76 ± 0.4 | 2.94 ± 0.31 | 2.21 ± 0.23 |
| CCCCCCCC [octane] + CCCCC(CC)CN(CC(CC)CCCC)C(=O)C(C)C | 11.9 ± 1.3 | 8.35 ± 0.88 | 6.04 ± 0.64 | 4.54 ± 0.48 | 3.36 ± 0.35 | 2.63 ± 0.28 |
| CCCCC [pentane] + CCCCC(CC)CN(CC(CC)CCCC)C(=O)C(C)C | 0.795 ± 0.082 | 0.676 ± 0.071 | 0.544 ± 0.059 | 0.457 ± 0.051 | 0.382 ± 0.045 | 0.324 ± 0.041 |
| CCCc1ccccc1 [propylbenzene] + CCCCC(CC)CN(CC(CC)CCCC)C(=O)C(C)C | 17.8 ± 1.9 | 14.7 ± 1.6 | 11.5 ± 1.2 | 9.18 ± 0.97 | 7.33 ± 0.77 | 5.72 ± 0.6 |
| ClC(Cl)(Cl)Cl [tetrachloromethane] + CCCCC(CC)CN(CC(CC)CCCC)C(=O)C(C)C | 1.94 ± 0.2 | 1.6 ± 0.17 | 1.22 ± 0.13 | 0.935 ± 0.095 | 0.727 ± 0.076 | 0.581 ± 0.062 |
| Cc1ccccc1 [toluene] + CCCCC(CC)CN(CC(CC)CCCC)C(=O)C(C)C | 5.11 ± 0.54 | 4.25 ± 0.45 | 3.25 ± 0.34 | 2.5 ± 0.26 | 1.88 ± 0.2 | 1.46 ± 0.15 |
| ClC(Cl)Cl [trichloromethane] + CCCCC(CC)CN(CC(CC)CCCC)C(=O)C(C)C | 1.15 ± 0.12 | 0.966 ± 0.098 | 0.746 ± 0.077 | 0.586 ± 0.063 | 0.463 ± 0.052 | 0.372 ± 0.044 |
| CCCCCCCCCCC [undecane] + CCCCC(CC)CN(CC(CC)CCCC)C(=O)C(C)C | 39.2 ± 4.1 | 35.9 ± 3.8 | 31.5 ± 3.3 | 27.5 ± 2.9 | 25.5 ± 2.7 | 22.7 ± 2.4 |
